Data taken from patent US8106055B2, “Substituted amide compounds” (Gruenenthal GmbH, priority 2007, dated 2012).

Assays:
[1] = biological target: T1, serotonin (5-HT) reuptake (Rattus norvegicus, UniProt P31652); test: Inhibition of serotonin (5HT) reuptake in synaptosomes from rat brain; type: biochemical; details: for 5-HT (inhibition of reuptake of serotonin, % inhibition): test concentration of 10 μM; for inhibition at 10 µM: read-out: 5-HT reuptake
T1 construct: synaptosomes are freshly isolated from areas of the rat brain; from tissue; host or cells: rat brain synaptosomes (P2 fraction)
How it was run: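 Compounds screened at 10 μM and reported as percent inhibition of serotonin uptake. Uptake measured in a freshly prepared P2 synaptosomal fraction from rat brain.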

[2] = biological target: T2, human μ opiate receptor (Homo sapiens, UniProt P35372); test: Affinity for the human μ opiate receptor ([3H]-naloxone displacement, CHO-K1 receptor membrane preparation, SPA); type: binding; details: for μ (binding on the μ opioid receptor, % inhibition): test concentration of 1 μM; for inhibition at 1 µM: 1.5 h, read-out: μ receptor
T2 construct: purchased PerkinElmer Life Sciences, Zaventem, Belgium RB-HOM; host or cells: CHO-K1 cells (membrane preparation)
How it was run: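 SPA, CHO-K1 hμ membranes; 1 nmol/l [3H]-naloxone; Tris-HCl 50 mmol/l + 0.06% BSA; 90 min RT; NSB with 100 μmol/l naloxone; β-counting. Readout: % inhibition of specific binding at 1 μM test compound.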

[3] = Table 2, test concentration 10 μM
[4] = Table 2, test concentration 1 μM

T1 sequence (P31652 whole entry): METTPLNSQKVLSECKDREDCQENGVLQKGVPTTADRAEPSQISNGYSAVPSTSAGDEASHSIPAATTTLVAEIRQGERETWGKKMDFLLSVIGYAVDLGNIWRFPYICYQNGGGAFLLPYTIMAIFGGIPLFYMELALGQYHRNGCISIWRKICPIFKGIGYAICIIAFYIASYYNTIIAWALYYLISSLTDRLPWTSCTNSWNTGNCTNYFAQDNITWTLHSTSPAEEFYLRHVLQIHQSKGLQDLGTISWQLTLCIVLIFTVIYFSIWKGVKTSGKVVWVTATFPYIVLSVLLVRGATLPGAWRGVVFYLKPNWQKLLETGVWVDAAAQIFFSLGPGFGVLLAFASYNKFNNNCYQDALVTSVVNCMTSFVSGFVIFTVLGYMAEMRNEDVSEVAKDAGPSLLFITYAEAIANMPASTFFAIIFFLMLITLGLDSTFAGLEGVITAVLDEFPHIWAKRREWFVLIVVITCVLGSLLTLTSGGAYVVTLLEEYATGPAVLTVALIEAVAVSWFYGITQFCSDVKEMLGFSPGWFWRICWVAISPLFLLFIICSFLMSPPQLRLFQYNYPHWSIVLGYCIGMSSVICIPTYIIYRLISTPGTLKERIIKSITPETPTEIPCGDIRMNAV
T2 sequence (P35372 whole entry): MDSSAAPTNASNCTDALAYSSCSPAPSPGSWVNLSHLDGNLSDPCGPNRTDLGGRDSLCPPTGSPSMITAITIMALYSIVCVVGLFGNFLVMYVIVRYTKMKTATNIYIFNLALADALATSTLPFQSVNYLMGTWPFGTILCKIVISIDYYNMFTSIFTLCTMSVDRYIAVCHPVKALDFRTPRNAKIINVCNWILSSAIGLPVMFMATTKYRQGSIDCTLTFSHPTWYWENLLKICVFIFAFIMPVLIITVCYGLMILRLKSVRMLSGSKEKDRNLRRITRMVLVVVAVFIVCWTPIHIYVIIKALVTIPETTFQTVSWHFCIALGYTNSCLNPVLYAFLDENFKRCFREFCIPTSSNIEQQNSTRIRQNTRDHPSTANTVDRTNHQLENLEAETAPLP

SMILES: CN(C)C(c1cccc(F)c1)C1CCC(NC(=O)COCCN(C)S(=O)(=O)c2ccc(F)cc2)CC1 (stereo not drawn) [Example 205]
- 5-HT (inhibition of reuptake of serotonin, % inhibition) [1]: 84%
- μ (binding on the μ opioid receptor, % inhibition) [2]: 76%

SMILES: COc1ccc(S(=O)(=O)N2CCC(OCC(=O)NCCC3CCC(C(c4cccc(F)c4)N(C)C)CC3)C2)cc1OC (stereo not drawn) [Example 262]
- 5-HT (inhibition of reuptake of serotonin, % inhibition) [1]: 90%
- μ (binding on the μ opioid receptor, % inhibition) [2]: 82%

SMILES: COc1cc(C)c(S(=O)(=O)N2CCC(OCC(=O)NCCC3CCC(C(c4cccc(F)c4)N(C)C)CC3)C2)c(C)c1C (stereo not drawn) [Example 253]
- 5-HT (inhibition of reuptake of serotonin, % inhibition) [1]: 96%
- μ (binding on the μ opioid receptor, % inhibition) [2]: 76%

SMILES: COc1cc(C)c(S(=O)(=O)N(CCOCC(=O)NCCC2CCC(C(c3cccs3)N(C)C)CC2)Cc2ccccc2)c(C)c1C (stereo not drawn) [Example 254]
- 5-HT (inhibition of reuptake of serotonin, % inhibition) [1]: 94%
- μ (binding on the μ opioid receptor, % inhibition) [2]: 83%

SMILES: CN(C)C(c1cccs1)C1CCC(CCNC(=O)COC2CCCCC2N(C)S(=O)(=O)c2ccc(Cl)c(Cl)c2)CC1 (stereo not drawn) [Example 214]
- 5-HT (inhibition of reuptake of serotonin, % inhibition) [1]: 83%
- μ (binding on the μ opioid receptor, % inhibition) [2]: 85%

SMILES: CN(C)C(c1ccc(Cl)cc1)C1CCC(CNC(=O)COC2CCCCC2N(C)S(=O)(=O)c2ccc(Cl)c(Cl)c2)CC1 (stereo not drawn) [Example 269]
- 5-HT (inhibition of reuptake of serotonin, % inhibition) [1]: 87%
- μ (binding on the μ opioid receptor, % inhibition) [2]: 74%

SMILES: CN(C)C(c1ccccc1)C1CCC(CNC(=O)COCCN(C)S(=O)(=O)c2c(Cl)cc(Cl)cc2Cl)CC1 (stereo not drawn) [Example 614, N-[4-(dimethylaminophenylmethyl)-cyclohexylmethyl]-2-{2-[(2,4,6-trichlorobenzenesulfonyl)-methylamino]-ethoxy}-acetamide]
- inhibition at 10 µM [1, 3]: 90%
- inhibition at 1 µM [2, 4]: 96%

SMILES: CN(C)C(c1ccc(F)cc1)C1CCC(CNC(=O)COCC2CCCN2S(=O)(=O)c2ccc(Cl)c(Cl)c2)CC1 (stereo not drawn) [Example 267]
- 5-HT (inhibition of reuptake of serotonin, % inhibition) [1]: 94%
- μ (binding on the μ opioid receptor, % inhibition) [2]: 73%

SMILES: CN(C)C(c1ccccc1)C1CCC(CNC(=O)COC2CCN(S(=O)(=O)c3ccc(F)cc3)C2)CC1 (stereo not drawn) [Example 219]
- 5-HT (inhibition of reuptake of serotonin, % inhibition) [1]: 96%
- μ (binding on the μ opioid receptor, % inhibition) [2]: 82%

SMILES: COc1cc(C)c(S(=O)(=O)N2CCC(OCC(=O)NCCC3CCC(C(c4cccc(F)c4)N(C)C)CC3)CC2)c(C)c1C (stereo not drawn) [Example 232]
- 5-HT (inhibition of reuptake of serotonin, % inhibition) [1]: 98%
- μ (binding on the μ opioid receptor, % inhibition) [2]: 78%

SMILES: COc1cc(C)c(S(=O)(=O)N2CCN(CCOCC(=O)NC3CCC(C(c4ccc(F)cc4)N(C)C)CC3)CC2)c(C)c1C (stereo not drawn) [Example 222]
- 5-HT (inhibition of reuptake of serotonin, % inhibition) [1]: 92%
- μ (binding on the μ opioid receptor, % inhibition) [2]: 77%

SMILES: CN(C)C(c1cccc(F)c1)C1CCC(CCNC(=O)COCCN(C)S(=O)(=O)c2ccc(OC(F)(F)F)cc2)CC1 (stereo not drawn) [Example 215]
- 5-HT (inhibition of reuptake of serotonin, % inhibition) [1]: 90%
- μ (binding on the μ opioid receptor, % inhibition) [2]: 85%

SMILES: CN(C)C(c1ccc(Cl)cc1)C1CCC(CCNC(=O)COCCN(C)S(=O)(=O)c2c(Cl)cccc2Cl)CC1 (stereo not drawn) [Example 274]
- 5-HT (inhibition of reuptake of serotonin, % inhibition) [1]: 81%
- μ (binding on the μ opioid receptor, % inhibition) [2]: 68%

SMILES: CN(C)C(c1cccc(F)c1)C1CCC(CNC(=O)COC2CCN(S(=O)(=O)c3ccc(Cl)cc3Cl)C2)CC1 (stereo not drawn) [Example 225]
- 5-HT (inhibition of reuptake of serotonin, % inhibition) [1]: 85%
- μ (binding on the μ opioid receptor, % inhibition) [2]: 83%

SMILES: CN(C)C(c1cccs1)C1CCC(CCNC(=O)COC2CCN(S(=O)(=O)c3ccccc3)CC2)CC1 (stereo not drawn) [Example 230]
- 5-HT (inhibition of reuptake of serotonin, % inhibition) [1]: 94%
- μ (binding on the μ opioid receptor, % inhibition) [2]: 82%

SMILES: CN(C)C(c1cccc(F)c1)C1CCC(CNC(=O)COCCN(C)S(=O)(=O)c2ccc(F)cc2)CC1 (stereo not drawn) [Example 229]
- 5-HT (inhibition of reuptake of serotonin, % inhibition) [1]: 89%
- μ (binding on the μ opioid receptor, % inhibition) [2]: 79%

SMILES: COc1ccc(S(=O)(=O)N2CCCCC2CCOCC(=O)NC2CCC(C(c3ccc(F)cc3)N(C)C)CC2)cc1 (stereo not drawn) [Example 212]
- 5-HT (inhibition of reuptake of serotonin, % inhibition) [1]: 92%
- μ (binding on the μ opioid receptor, % inhibition) [2]: 80%

SMILES: COc1cc(C)c(S(=O)(=O)N2CCCC(OCC(=O)NCCC3CCC(C(c4cccc(F)c4)N(C)C)CC3)C2)c(C)c1C (stereo not drawn) [Example 221]
- 5-HT (inhibition of reuptake of serotonin, % inhibition) [1]: 95%
- μ (binding on the μ opioid receptor, % inhibition) [2]: 82%

SMILES: CN(C)C(c1cccc(F)c1)C1CCC(CCNC(=O)COC2CCN(S(=O)(=O)c3ccc(Cl)cc3Cl)C2)CC1 (stereo not drawn) [Example 259]
- 5-HT (inhibition of reuptake of serotonin, % inhibition) [1]: 90%
- μ (binding on the μ opioid receptor, % inhibition) [2]: 83%

SMILES: COc1cc(C)c(S(=O)(=O)N(C)CCOCC(=O)NCC2CCC(C(c3cccc(F)c3)N(C)C)CC2)c(C)c1 (stereo not drawn) [Example 248]
- 5-HT (inhibition of reuptake of serotonin, % inhibition) [1]: 90%
- μ (binding on the μ opioid receptor, % inhibition) [2]: 81%

SMILES: COc1ccc(S(=O)(=O)N2Cc3ccccc3CC2COCC(=O)NC2CCC(C(c3ccc(F)cc3)N(C)C)CC2)cc1 (stereo not drawn) [Example 234]
- 5-HT (inhibition of reuptake of serotonin, % inhibition) [1]: 95%
- μ (binding on the μ opioid receptor, % inhibition) [2]: 76%

SMILES: CCN(CCOCC(=O)NCC1CCC(C(c2ccccc2)N(C)C)CC1)S(=O)(=O)c1c(C)cc(OC)c(C)c1C (stereo not drawn) [Example 231]
- 5-HT (inhibition of reuptake of serotonin, % inhibition) [1]: 83%
- μ (binding on the μ opioid receptor, % inhibition) [2]: 82%

SMILES: COc1cc(C)c(S(=O)(=O)N(C)CCOCC(=O)NC2CCC(C(c3ccccc3)N(C)C)CC2)c(C)c1 (stereo not drawn) [Example 239]
- 5-HT (inhibition of reuptake of serotonin, % inhibition) [1]: 78%
- μ (binding on the μ opioid receptor, % inhibition) [2]: 38%

SMILES: CN(C)C(c1cccc(F)c1)C1CCC(CCNC(=O)COCC2CCCN2S(=O)(=O)c2ccc(Cl)c(Cl)c2)CC1 (stereo not drawn) [Example 202]
- 5-HT (inhibition of reuptake of serotonin, % inhibition) [1]: 98%
- μ (binding on the μ opioid receptor, % inhibition) [2]: 85%

SMILES: COc1ccc(S(=O)(=O)N(C)CCOCC(=O)NC2CCC(C(c3cccs3)N(C)C)CC2)cc1OC (stereo not drawn) [Example 206]
- 5-HT (inhibition of reuptake of serotonin, % inhibition) [1]: 84%
- μ (binding on the μ opioid receptor, % inhibition) [2]: 78%

SMILES: CN(C)C(c1ccccc1)C1CCC(NC(=O)COCCN(C)S(=O)(=O)c2c(Cl)cc(Cl)cc2Cl)C1 (stereo not drawn) [Example 615, N-[3-(dimethylaminophenylmethyl)-cyclopentyl]-2-{2-[(2,4,6-trichlorobenzenesulfonyl)-methylamino]-ethoxy}-acetamide]
- inhibition at 10 µM [1, 3]: 81%
- inhibition at 1 µM [2, 4]: 89%

SMILES: CN(C)C(c1ccc(F)cc1)C1CCC(CCNC(=O)COC2CCCCC2N(C)S(=O)(=O)c2ccc(Cl)c(Cl)c2)CC1 (stereo not drawn) [Example 244]
- 5-HT (inhibition of reuptake of serotonin, % inhibition) [1]: 88%
- μ (binding on the μ opioid receptor, % inhibition) [2]: 81%

SMILES: CN(C)C(c1ccccc1)C1CCC(NC(=O)COCC2CCCN2S(=O)(=O)c2c(Cl)cc(Cl)cc2Cl)CC1 (stereo not drawn) [Example 612, N-[4-(Dimethylaminophenylmethyl)-cyclohexyl]-2-[1-(2,4,6-trichlorobenzenesulfonyl)-pyrrolidin-2-ylmethoxy]-acetamide]
- 5-HT reuptake [1, 3]: 84 % inhibition
- μ receptor [2, 4]: 88 % inhibition

SMILES: COc1cc(C)c(S(=O)(=O)N2CCN(CCOCC(=O)NCC3CCC(C(c4cccc(F)c4)N(C)C)CC3)CC2)c(C)c1C (stereo not drawn) [Example 223]
- 5-HT (inhibition of reuptake of serotonin, % inhibition) [1]: 96%
- μ (binding on the μ opioid receptor, % inhibition) [2]: 77%

SMILES: COc1cc(C)c(S(=O)(=O)N2CCC(OCC(=O)NCC3CCC(C(c4cccc(F)c4)N(C)C)CC3)C2)c(C)c1 (stereo not drawn) [Example 265]
- 5-HT (inhibition of reuptake of serotonin, % inhibition) [1]: 95%
- μ (binding on the μ opioid receptor, % inhibition) [2]: 79%

SMILES: CN(C)C(c1ccc(Cl)cc1)C1CCC(CCNC(=O)COCCN(C)S(=O)(=O)c2ccc(F)cc2)CC1 (stereo not drawn) [Example 241]
- 5-HT (inhibition of reuptake of serotonin, % inhibition) [1]: 102%
- μ (binding on the μ opioid receptor, % inhibition) [2]: 67%

SMILES: Cc1ccc(S(=O)(=O)N(C)CCOCC(=O)NCCC2CCC(C(c3cccc(F)c3)N(C)C)CC2)cc1 (stereo not drawn) [Example 240]
- 5-HT (inhibition of reuptake of serotonin, % inhibition) [1]: 87%
- μ (binding on the μ opioid receptor, % inhibition) [2]: 74%

SMILES: Cc1cc(C)c(S(=O)(=O)N(C)CCOCC(=O)NC2CCC(C(c3cccs3)N(C)C)CC2)c(C)c1 (stereo not drawn) [Example 235]
- 5-HT (inhibition of reuptake of serotonin, % inhibition) [1]: 86%
- μ (binding on the μ opioid receptor, % inhibition) [2]: 76%
